Structures can show the parent of a compound that is named as a salt.
Key:
[1] = target: T1, human 5-HT2A receptor (Homo sapiens, UniProt P28223); assay: 5-HT2A FLIPR assay (calcium response to DOI) in CHO cells; format: cell-based; details: for IC50: antagonist inhibition of 3 nM DOI stimulation, CHO cells, FLIPR; for inhibition at 1 µM: CHO, read-out: 5-HT2A Percentage inhibition at 1 μM
T1 construct: expressed in transfected cells; host or cells: CHO
Procedure: Cells are washed with PBS without Ca^2+ and 3 mL Trypsin is added to dissociate cells. After 3 minute incubation, 7 mL Trypsin Neutralizing Solution is added. Cells are then aspirated from flask and mixed in a 50 mL conical tube. 10 μL sample is used to count cells on a hemacytometer. […] Two 96-well drug plates are prepared for each cell plate. Plate 1 will contain compounds to be tested and plate 2 will contain the agonist DOI (3 nM) to activate a calcium response. Specific details of compound preparation are listed below. […] Outside wells are not used due to an edge effect seen in these cells. The reference compounds DOI and 5-HT are used as standard 5HT agonists. […] Standards for plate one are Vehicle, 1 μM DOI, and 3 nM MDL. […] On the day of the assay, test compound solutions of appropriate concentrations are diluted in assay buffer as described for single concentration testing. This procedure is followed to ensure that the solvent concentration is consistent across dilutions. The typical concentration testing range of compounds is 10^−10—10^−5 M in half log or full log increments. A 10 μM DOI stock is diluted to 60 nM and added to the respective wells. The pipeting station of the FLIPR will make an additional 20-fold dilution for a final concentration of 3 nM. Standards for this plate include Vehicle and 3 nM DOI. Contents of dye vial (Molecular Devices #R8090) are dissolved in 100 mL of 1×HBSS supplemented with 20 mM HEPES. Aliquots can be frozen at −20° C. for up to one week for future use. On the day of assay, dye is thawed and diluted to half concentration. […] Cells are allowed to adhere for 24 hours in 96-well plates. […] Cell, compound and DOI plates are loaded into the FLIPR machine. The baseline fluorescence level is read once every second for 1 minute. Compound (10 μL) is transferred from the compound plate to the cells and the fluorescence level recorded every 6 seconds for 2 minutes to determine any agonist activity. Baseline fluorescence is recorded again every second for 10 seconds. For antagonist determination, 10 μL of 3 nM DOI is transferred from the DOI plate to the cells and the fluorescence level recorded every 6 seconds for 5 minutes. The pipetting unit of the FLIPR machine completes all transfers. […] The data are log transformed prior to analysis.

[2] = target: T2, human hNET (Homo sapiens, UniProt P23975); assay: Norepinephrine (NE) uptake assay in MDCK-Net6 cells; format: cell-based; details: [3H]NE uptake; for EC50: MDCK-Net6 cells stably transfected with hNET
T2 construct: expressed in transfected cells; host or cells: MDCK (MDCK-Net6)
T2 sequence (P23975 whole entry): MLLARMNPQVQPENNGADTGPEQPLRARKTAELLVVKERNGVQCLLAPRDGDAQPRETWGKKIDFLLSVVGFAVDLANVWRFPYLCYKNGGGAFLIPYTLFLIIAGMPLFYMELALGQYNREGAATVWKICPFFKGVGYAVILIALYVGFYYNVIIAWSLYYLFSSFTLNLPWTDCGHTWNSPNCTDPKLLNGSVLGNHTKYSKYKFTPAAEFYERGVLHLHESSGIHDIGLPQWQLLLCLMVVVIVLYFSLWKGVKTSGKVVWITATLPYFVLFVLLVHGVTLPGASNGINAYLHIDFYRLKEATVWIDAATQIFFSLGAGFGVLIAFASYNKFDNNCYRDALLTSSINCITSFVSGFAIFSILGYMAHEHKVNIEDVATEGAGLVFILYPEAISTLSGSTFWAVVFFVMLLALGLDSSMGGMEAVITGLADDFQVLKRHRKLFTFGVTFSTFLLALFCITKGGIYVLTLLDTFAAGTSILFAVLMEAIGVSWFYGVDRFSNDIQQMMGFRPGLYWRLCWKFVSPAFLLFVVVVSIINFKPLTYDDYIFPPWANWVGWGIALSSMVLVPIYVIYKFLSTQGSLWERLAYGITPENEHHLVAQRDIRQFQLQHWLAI
Procedure: Cells were plated at 300,000/T75 flask and cells were split twice weekly. […] Cells were plated at 250,000 cells/T75 flask and split twice weekly.
Norepinephrine (NE) Uptake Assay
On day 1, cells were plated at 3,000 cells/well in growth medium and maintained in a cell incubator (37° C., 5% CO2). On day 2, growth medium was replaced with 200 μl of assay buffer (25 mM HEPES; 120 mM NaCl; 5 mM KCl; 2.5 mM CaCl2; 1.2 mM MgSO4; 2 mg/ml glucose (pH 7.4, 37° C.)) containing 0.2 mg/ml ascorbic acid and 10 μM pargyline. Plates containing cells with 200 μl of assay buffer were equilibrated for 10 minutes at 37° C. prior to addition of compounds. A stock solution of desipramine was prepared in DMSO (10 mM) and delivered to triplicate wells containing cells for a final test concentration of 1 μM. Data from these wells were used to define non-specific NE uptake (minimum NE uptake). Test compounds were prepared in DMSO (10 mM) and diluted in assay buffer according to test range (1 to 10,000 nM). Twenty-five microliters of assay buffer (maximum NE uptake) or test compound were added directly to triplicate wells containing cells in 200 μl of assay buffer. The cells in assay buffer with test compounds were incubated for 20 minutes at 37° C. […] The reaction was terminated by decanting the supernatant from the plate. The plates containing cells were washed twice with 200 μl assay buffer (37° C.) to remove free radioligand. The plates were then inverted, left to dry for 2 minutes, then reinverted and air-dried for an additional 10 minutes. […] After cell lysis, 75 μl of scintillation cocktail was added to each well and the plates were sealed with film tape. The plates were returned to the shake table and vigorously shaken for a minimum of 10 minutes to ensure adequate partitioning of organic and aqueous solutions. The plates were counted in a Wallac Microbeta counter (PerkinElmer) to collect the raw cpm data.
For each experiment, a data stream of cpm values collected from the Wallac Microbeta counter was downloaded to a Microsoft Excel statistical application program. Calculations of EC50 values were made using the transformed-both-sides logistic dose response program written by Wyeth Biometrics Department.

T1 sequence (P28223 whole entry): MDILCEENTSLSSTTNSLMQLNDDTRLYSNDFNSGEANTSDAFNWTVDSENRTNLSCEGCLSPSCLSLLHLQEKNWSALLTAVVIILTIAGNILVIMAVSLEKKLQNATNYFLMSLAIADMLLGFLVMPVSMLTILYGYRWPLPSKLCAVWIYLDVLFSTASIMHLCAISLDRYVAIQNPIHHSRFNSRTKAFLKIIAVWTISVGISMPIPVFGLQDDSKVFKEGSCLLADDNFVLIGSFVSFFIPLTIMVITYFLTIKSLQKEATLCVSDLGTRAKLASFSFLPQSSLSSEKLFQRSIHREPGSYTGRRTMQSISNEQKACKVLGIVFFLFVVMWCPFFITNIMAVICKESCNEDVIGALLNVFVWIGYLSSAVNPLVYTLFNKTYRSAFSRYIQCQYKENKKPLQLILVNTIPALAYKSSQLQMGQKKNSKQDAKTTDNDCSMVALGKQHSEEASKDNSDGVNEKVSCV

CNC[C@@H](O)[C@H](c1ccccc1)n1ccc2cc(OCc3ccc(OC)cc3)ccc21 [Example 7, (1S,2R)-1-{5-[(4-methoxybenzyl)oxy]-1H-indol-1-yl}-3-(methylamino)-1-phenylpropan-2-ol hydrochloride]
IC50 [1]: 281 nM
EC50 [2]: 32 nM

CNC[C@@H](O)[C@H](c1ccccc1)n1ccc2cc(OCc3ccccc3Cl)ccc21 [Example 8, (1S,2R)-1-{5-[(2-chlorobenzyl)oxy]-1H-indol-1-yl}-3-(methylamino)-1-phenylpropan-2-ol hydrochloride]
IC50 [1]: 658 nM
EC50 [2]: 147 nM

CNC[C@@H](O)[C@H](c1ccccc1)n1ccc2cc(OCc3cccc(Cl)c3)ccc21 [Example 9, (1S,2R)-1-{5-[(3-chlorobenzyl)oxy]-1H-indol-1-yl}-3-(methylamino)-1-phenylpropan-2-ol hydrochloride]
inhibition at 1 µM [1]: 39%
EC50 [2]: 89 nM

CNC[C@@H](O)[C@H](c1ccccc1)n1ccc2cc(OCc3ccc(Cl)cc3)ccc21 [Example 10, (1S,2R)-1-{5-[(4-chlorobenzyl)oxy]-1H-indol-1-yl}-3-(methylamino)-1-phenylpropan-2-ol hydrochloride]
IC50 [1]: 712 nM
EC50 [2]: 67 nM

CNC[C@@H](O)[C@H](c1ccccc1)n1ccc2cc(OCc3ccccc3F)ccc21 [Example 11, (1S,2R)-1-{5-[(2-fluorobenzyl)oxy]-1H-indol-1-yl}-3-(methylamino)-1-phenylpropan-2-ol hydrochloride]
IC50 [1]: 1260 nM
EC50 [2]: 52 nM

CNC[C@@H](O)[C@H](c1ccccc1)n1ccc2cc(OCc3cccc(F)c3)ccc21 [Example 12, (1S,2R)-1-{5-[(3-fluorobenzyl)oxy]-1H-indol-1-yl}-3-(methylamino)-1-phenylpropan-2-ol hydrochloride]
IC50 [1]: 979 nM
EC50 [2]: 36 nM

CNC[C@@H](O)[C@H](c1ccccc1)n1ccc2cc(OCc3ccc(F)cc3)ccc21 [Example 13, (1S,2R)-1-{5-[(4-fluorobenzyl)oxy]-1H-indol-1-yl}-3-(methylamino)-1-phenylpropan-2-ol hydrochloride]
IC50 [1]: 468 nM
EC50 [2]: 31 nM

CNC[C@@H](O)[C@H](c1ccccc1)n1ccc2cc(OCc3ccccc3C)ccc21 [Example 14, (1S,2R)-3-(methylamino)-1-{5-[(2-methylbenzyl)oxy]-1H-indol-1-yl}-1-phenylpropan-2-ol hydrochloride]
IC50 [1]: 442 nM
EC50 [2]: 109 nM

CNC[C@@H](O)[C@H](c1ccccc1)n1ccc2cc(OCc3cccc(C)c3)ccc21 [Example 15, (1S,2R)-3-(methylamino)-1-{5-[(3-methylbenzyl)oxy]-1H-indol-1-yl}-1-phenylpropan-2-ol hydrochloride]
IC50 [1]: 809 nM
EC50 [2]: 88 nM

CNC[C@@H](O)[C@H](c1ccccc1)n1ccc2cc(OCc3ccc(C)cc3)ccc21 [Example 16, (1S,2R)-3-(methylamino)-1-{5-[(4-methylbenzyl)oxy]-1H-indol-1-yl}-1-phenylpropan-2-ol hydrochloride]
IC50 [1]: 4120 nM
EC50 [2]: 37 nM

CNC[C@@H](O)[C@H](c1ccccc1)n1ccc2cc(OCCc3ccccc3)ccc21 [Example 18, (1S,2R)-3-(methylamino)-1-phenyl-1-[5-(2-phenylethoxy)-1H-indol-1-yl]propan-2-ol hydrochloride]
IC50 [1]: 1200 nM
EC50 [2]: 219 nM

CNC[C@@H](O)[C@H](c1ccccc1)n1ccc2cc(Oc3ccccc3)ccc21 [Example 19, (1S,2R)-3-(methylamino)-1-[5-(phenoxy)-1H-indol-1-yl]-1-phenylpropan-2-ol hydrochloride]
inhibition at 1 µM [1]: 39%
inhibition at 1 µM ([2]; at 1 μM, MDCK-Net6 cells, read-out: hNET Percentage inhibition at 1 μM): 27%

CNC[C@@H](O)[C@H](c1ccccc1)n1ccc2c(Oc3ccccc3)cccc21 [Example 20, (1S,2R)-3-(methylamino)-1-[4-(phenoxy)-1H-indol-1-yl]-1-phenylpropan-2-ol hydrochloride]
inhibition at 1 µM [1]: 30%
EC50 [2]: 227 nM

Reference: patent US20070072897A1, “Phenylaminopropanol derivatives and methods of their use” (Wyeth, priority 2005, published 2007)
